System: B16F10 cells (melanoma)
Assay: B16F10 melanoma tumor growth in mice (Example 2b)
Type: in vivo, C57BL/6J mice
Conditions: maropitant 30 mg/kg i.p. once a day, anti CTLA-4 5 mg/kg i.p. every other day, FIG. 5
Method: One Lewis Pulmonar Carcinoma cell line: 3LL; and one melanoma cell line: B16F10 (ATCC cell bank; LGC Standards); were used in this study. Both cell lines were maintained in culture in Dulbecco's modified Eagle's medium (DMEM) (Gibco, Thermo Fisher Scientific) supplemented with 10% foetal bovine serum (FBS) (Gibco, Thermo Fisher Scientific), 2 mM L-glutamine (Sigma-Aldrich, Merk) and Peni-Strep (50 U/ml and […]; Gibco, Thermo Fisher Scientific) in a humidified incubator at 37° C. and 5% CO2.
Cerenia® (maropitant citrate injectable solution; Zoetis US) was injected intraperitoneally at a dose of 30 mg/kg, once a day. […]
3LL cells (0.6×10^6 per mouse) or B16F10 cells (1×10^6 per mouse) were subcutaneously injected into the right flank of C57BL/6J mice (Charles River) with matrigel (Matrigel Membrane Matrix, Corning) at 50% v/v. Tumor growth was evaluated every 2/3 days. Animal vital parameters were monitored daily. […]
In order to evaluate the effect of Maropitant and anti CTLA-4 combination in vivo, B16F10 tumor-bearing mice were randomly assigned into four treatment groups as detailed in table 1 (n=6 mice per group) to receive either Maropitant 30 mg/kg, anti CTLA-4 5 mg/kg, the combination of both agents or the equivalent volume of vehicle. Tumor growth was recorded as detailed in Materials and Methods. […]

COc1ccc(C(C)(C)C)cc1CN[C@H]1C2CCN(CC2)[C@H]1C(c1ccccc1)c1ccccc1.O=C(O)CC(O)(CC(=O)O)C(=O)O [Maropitant, maropitant citrate]
reduction in tumor growth compared to vehicle group (after 9 days of treatment): 28% | effect on growth of melanoma tumours (in words) (9 days): inhibited the grown of melanoma tumours

— patent US20220016142A1, “COMBINATION THERAPY FOR TREATMENT OF CANCER” (PLUS VITECH, S.L., priority 2018, published 2022)
